In ChEMBL document CHEMBL4828717, “Synthetic cajaninstilbene acid derivatives eradicate methicillin-resistant Staphylococcus aureus persisters and biofilms” (Eur J Med Chem, 2021):
Calls of active or inactive are those of the source. The calls are words filed in the database; no cut-off is given here.

Tests used:
[1] = Toxicity in BALB/c mouse infected with methicillin-resistant Staphylococcus aureus ATCC 43300 assessed as damage in liver at 50 to 200 mg/kg, sc administered every 24 hrs for 4 days by H&E staining based light microscopic analysis; assay type: organism-based; conditions: in vivo, dose 50-200 mg/kg
Staphylococcus aureus [2] = assay: Synergistic antimicrobial activity against Staphylococcus aureus ATCC 43300 assessed as FICI at 2 times MIC after 24 hrs in presence of 4 ug/ml gentamicin by checkerboard assay; assay type: functional
Cell membrane [3] = assay: Induction of cell membrane damage in methicillin resistant Staphylococcus aureus ATCC 43300 assessed as increase in nucleic acid leakage by measuring increase in absorbance at 260 nm at 0.5 to 2 times MIC measured every 30 mins for 6 hrs by spectrophotometry; assay type: subcellular
Staphylococcus aureus [4] = assay: Antibacterial activity against methicillin resistant Staphylococcus aureus ATCC48073 assessed as reduction in microbial growth after 16 to 18 hrs by microbroth dilution method; assay type: functional; conditions: time 16-18 hrs
Staphylococcus aureus [5] = assay: Antibacterial activity against methicillin resistant Staphylococcus aureus ATCC48966 assessed as reduction in microbial growth after 16 to 18 hrs by microbroth dilution method; assay type: functional; conditions: time 16-18 hrs
[6] = Toxicity in BALB/c mouse infected with methicillin-resistant Staphylococcus aureus ATCC 43300 assessed as damage in spleen at 50 to 200 mg/kg, sc administered every 24 hrs for 4 days by H&E staining based light microscopic analysis; assay type: organism-based; conditions: in vivo, dose 50-200 mg/kg
[7] = Toxicity in BALB/c mouse infected with methicillin-resistant Staphylococcus aureus ATCC 43300 assessed as damage in heart at 50 to 200 mg/kg, sc administered every 24 hrs for 4 days by H&E staining based light microscopic analysis; assay type: organism-based; conditions: in vivo, dose 50-200 mg/kg
Staphylococcus aureus [8] = assay: Synergistic antimicrobial activity against Staphylococcus aureus ATCC 43300 assessed as FICI at 1 times MIC after 24 hrs in presence of 128 ug/ml kanamycin by checkerboard assay; assay type: functional
Cell membrane [9] = assay: Induction of cell membrane damage in methicillin resistant Staphylococcus aureus ATCC 43300 assessed as increase in ATP leakage […] at 4 times MIC measured every 30 mins for 6 hrs by Bactiter-glo assay
Enterococcus faecalis = assay: Antibacterial activity against Enterococcus faecalis ATCC29212 assessed as reduction in microbial growth after 16 to 18 hrs by microbroth dilution method; assay type: functional; conditions: ATCC 29212, time 16-18 hrs
Cell membrane [10] = assay: Induction of cell membrane damage in Staphylococcus aureus ATCC 43300 at 0.5 times MIC after 90 mins by confocal laser scanning microscopy analysis; assay type: subcellular
Staphylococcus aureus [11] = assay: Antibacterial activity against methicillin resistant Staphylococcus aureus ATCC49800 assessed as reduction in microbial growth after 16 to 18 hrs by microbroth dilution method; assay type: functional; conditions: time 16-18 hrs
Staphylococcus aureus [12] = assay: Antibacterial activity against methicillin resistant Staphylococcus aureus ATCC 62202 assessed as reduction in microbial growth after 16 to 18 hrs by microbroth dilution method; assay type: functional; conditions: time 16-18 hrs
Cell membrane [13] = assay: Induction of cell membrane permeabilization in methicillin resistant Staphylococcus aureus ATCC 43300 assessed as fluorescence intensity at 0.5 to 2 times of MIC measured after 30 mins by propidium iodide staining based fluorescence assay; assay type: subcellular
Staphylococcus aureus [14] = assay: Synergistic antimicrobial activity against Staphylococcus aureus ATCC 43300 assessed as FICI at 2 times MIC after 24 hrs in presence of 64 ug/ml kanamycin by checkerboard assay; assay type: functional

Q: Which Activity [1] does the source give for `CC(C)=CCc1c(OCCF)cc(/C=C/c2ccc(F)cc2)c(C(=O)O)c1O` here?
A: The Activity was “Non-Toxic”.

Q: What about the “fractional inhibitory concentration index (FICI)” value (Staphylococcus aureus [2]) of the same compound?
A: Its value is 0.75.

Q: And the Activity (Cell membrane [3])?
A: The Activity was “Active”.

Q: What about the MIC (Staphylococcus aureus [4]) of the same compound?
A: Its MIC is 4 µg/mL.

Q: And the MIC (Staphylococcus aureus [5])?
A: The MIC was 4 µg/mL.

Q: What about the Activity [6] of the same compound?
A: Its Activity is “Non-Toxic”.

Q: And the Activity [7]?
A: Its Activity is “Non-Toxic”.

Q: And the “fractional inhibitory concentration index (FICI)” value (Staphylococcus aureus [8])?
A: Its value is 0.75.

Q: And the Activity (Cell membrane [9])?
A: The Activity was “Active”.

Q: What about the MIC (Enterococcus faecalis) of the same compound?
A: The MIC was > 32 µg/mL.

Q: What about the Activity (Cell membrane [10]) of the same compound?
A: The Activity was “Active”.

Q: What about the MIC (Staphylococcus aureus [11]) of the same compound?
A: Its MIC is 4 µg/mL.

Q: What about the MIC (Staphylococcus aureus [12]) of the same compound?
A: Its MIC is 4 µg/mL.

Q: And the Activity (Cell membrane [13])?
A: Its Activity is “Dose-Dependent Effect”.

Q: And the “fractional inhibitory concentration index (FICI)” value (Staphylococcus aureus [14])?
A: Its value is 1.
